Measured values: ChEMBL document CHEMBL4811216, “Chemotherapy for human schistosomiasis: how far have we come? What's new? Where do we go from here?” (RSC Med Chem, 2020)

How the values were obtained:
[1] = biological target: HDAC1 (histone deacetylase 1) (Homo sapiens, UniProt Q13547); experiment: Inhibition of human HDAC1 using Z-Lys(Ac)-AMC as substrate at 1 uM by fluorimetric method relative to control; settings: HDAC1 enzyme, probe Z-Lys(Ac)-AMC
Schistosoma mansoni [2] = experiment: microbe, parasite or virus in culture; settings: Liberian, 72 h
Description: Antischistosomal activity against Schistosoma mansoni Liberian NTS incubated for 72 hrs by microscopic method

Schistosoma mansoni [3] = experiment: microbe, parasite or virus in culture; settings: 72 h
Description: Antischistosomal activity against Schistosoma mansoni incubated for 72 hrs by inverted microscopic method

Schistosoma haematobium = experiment: Antischistosomal activity against Schistosoma haematobium at 10 uM measured after 72 hrs relative to control; format: functional
Schistosoma mansoni [4] = experiment: Antischistosomal activity against Schistosoma mansoni infected in NMRI mouse assessed as worm burden reduction at 200 mg/kg, po administered as single dose and measured after 17 to 21 days relative to control; format: functional, organism-based; design: scale not given: the % may be the effect or the level left; settings: time 17-21 day
Schistosoma mansoni [5] = experiment: Antischistosomal activity against Schistosoma mansoni Puerto Rican schistosomula assessed as effect on worm phenotype measured after 72 hrs; format: functional, organism-based
Schistosoma mansoni [6] = experiment: Antischistosomal activity against Schistosoma mansoni Puerto Rican schistosomula assessed as effect on worm motility measured after 72 hrs; format: functional, organism-based
Schistosoma mansoni [7] = experiment: Antischistosomal activity against Schistosoma mansoni NTS assessed as worm mortality at 10 uM measured up to 72 hrs by microscopic method relative to control; format: functional; settings: time hrs <=72
Schistosoma mansoni [8] = experiment: Antischistosomal activity against adult Schistosoma mansoni assessed as worm mortality at 10 uM measured up to 72 hrs by microscopic method relative to control; format: functional; settings: time hrs <=72
Schistosoma mansoni [9] = experiment: Antischistosomal activity against adult Schistosoma mansoni measured up to 72 hrs by microscopic method; format: functional, organism-based
[10] = Cytotoxicity against Biomphalaria alexandrina incubated for 24 hrs
Schistosoma mansoni [11] = experiment: Antischistosomal activity against Schistosoma mansoni Puerto-Rican assessed as worm mortality incubated for 5 days by stereomicroscopic method; format: functional, organism-based; settings: 120 h; for IC90: time 5 day
Schistosoma mansoni [12] = experiment: Antischistosomal activity against Schistosoma mansoni Egyptian assessed as worm mortality incubated for 5 days by stereomicroscopic method; format: functional, organism-based; settings: 120 h; for IC90: time 5 day
Schistosoma mansoni [13] = experiment: Antischistosomal activity against Schistosoma mansoni assessed as worm mortality at 5 ug/ml incubated for 5 days by stereomicroscopic method relative to control; format: functional; settings: 120 h, time 5 day
[14] = Cytotoxicity against Biomphalaria alexandrina incubated for 24 hrs relative to control; design: concentration or dose not given beside the values
Schistosoma mansoni [15] = experiment: Antischistosomal activity against Schistosoma mansoni incubated for 72 hrs by microscopic method; format: functional, organism-based
Schistosoma mansoni [16] = experiment: Antischistosomal activity against Schistosoma mansoni infected in NMRI mouse assessed as worm burden reduction at 400 mg/kg, po administered […] for 4 consecutive days and measured after 14 days relative to control; format: functional; design: scale not given: the % may be the effect or the level left; settings: time 14 day

Sequence of HDAC1 (histone deacetylase 1) (Q13547 whole entry): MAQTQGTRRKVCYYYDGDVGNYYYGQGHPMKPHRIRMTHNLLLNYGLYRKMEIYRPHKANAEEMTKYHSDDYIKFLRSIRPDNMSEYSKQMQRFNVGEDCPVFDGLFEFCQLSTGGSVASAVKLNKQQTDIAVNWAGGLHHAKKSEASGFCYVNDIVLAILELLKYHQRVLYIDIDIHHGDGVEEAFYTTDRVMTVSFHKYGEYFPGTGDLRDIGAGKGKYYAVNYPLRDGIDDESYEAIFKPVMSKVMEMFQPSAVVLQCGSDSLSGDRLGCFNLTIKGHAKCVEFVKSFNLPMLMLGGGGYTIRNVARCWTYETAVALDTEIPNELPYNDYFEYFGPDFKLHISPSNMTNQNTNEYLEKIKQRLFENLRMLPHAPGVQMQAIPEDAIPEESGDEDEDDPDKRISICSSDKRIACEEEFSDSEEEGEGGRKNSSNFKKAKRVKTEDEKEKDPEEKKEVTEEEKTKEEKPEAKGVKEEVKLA

## Cc1cc(C)cc(CONC(=O)c2cccc(C(=O)NO)c2)c1
[1]
  inhibition at 1 µM: < 10%

## Nc1nc(NCC2CCC(CNS(=O)(=O)c3ccc4ccccc4c3)CC2)nc2ccccc12 (stereo not drawn)
Schistosoma mansoni [2]
  IC50: 0.6 µM
Schistosoma mansoni [3]
  IC50: 2 µM

## Cn1c(=O)c2c(S(C)(=O)=O)snc2n(C)c1=O
Schistosoma haematobium
  Activity: 75.4%
Schistosoma mansoni [2]
  IC50: 0.8 µM
Schistosoma mansoni [3]
  IC50: 4.7 µM

## Cc1ccc(CONC(=O)c2cccc(C(=O)NO)c2)cc1
[1]
  inhibition at 1 µM: < 10%

## CN1CCC(NCc2cccc(-c3ccc(S(=O)(=O)NCc4ccccc4)cc3)c2)CC1
Schistosoma mansoni [4]
  Activity: 67.8%
Schistosoma haematobium
  Activity: 75.4%
Schistosoma mansoni [2]
  IC50: 2.6 µM
Schistosoma mansoni [3]
  IC50: 3 µM

## C=C[C@](C)(O)CCC1[C@](C)(O)CC[C@H]2C(C)(C)CCC[C@]12C (stereo partly drawn)
Schistosoma mansoni [5]
  IC50: 14.2 µM
Schistosoma mansoni [6]
  IC50: 12.3 µM

## N#Cc1c(C(F)(F)F)cc(Nc2ccc(CN3CCOCC3)cc2)n2c1nc1ccccc12
Schistosoma mansoni [7]
  mortality at 10 µM: > 70%
Schistosoma mansoni [8]
  mortality at 10 µM: > 60%
Schistosoma mansoni [9]
  IC50: 0.2 µM

## O=C(NO)c1cccc(C(=O)NOCc2cccc3ccccc23)c1
[1]
  inhibition at 1 µM: < 10%

## CC1(C)CCC[C@]2(C)C(CC[C@@](C)(O)/C=C/c3ccc(Cl)cc3)[C@](C)(O)CC[C@@H]12 (stereo partly drawn)
Schistosoma mansoni [5]
  IC50: < 10 µM
Schistosoma mansoni [6]
  IC50: < 10 µM

## CNc1nnc(Sc2cnn(-c3ccccc3)c(=O)c2Cl)s1
Schistosoma haematobium
  Activity: 100%
Schistosoma mansoni [2]
  IC50: 0.4 µM
Schistosoma mansoni [3]
  IC50: 2.5 µM

## CN(C)CCNc1nc2ccc(Nc3cc(C(F)(F)F)c(C#N)c4nc5ccccc5n34)cc2o1
Schistosoma mansoni [7]
  mortality at 10 µM: > 70%
Schistosoma mansoni [8]
  mortality at 10 µM: > 60%
Schistosoma mansoni [9]
  IC50: 0.2 µM

## O=C(NO)c1cccc(C(=O)NNc2ccccc2)c1
[1]
  inhibition at 1 µM: < 10%

## Cn1c2nc3ccccc3c-2c(N2CCC(N3CCCCC3)CC2)c2cc(Cl)ccc21
[10]
  LC50: 2.6 µM
  LC90: 3.5 µM
Schistosoma mansoni [11]
  IC50: 7.85 µM
  IC90: 13.4 µM
Schistosoma mansoni [12]
  IC50: 3.46 µM
  IC90: 8.31 µM
Schistosoma mansoni [13]
  mortality at 5 µg/mL: 100%
[14]
  mortality: 100%

## CCN1CCCC1CNc1c2c3ccccc3nc-2n(C)c2ccc(Cl)cc12 (stereo not drawn)
[10]
  LC50: 2.95 µM
  LC90: 4.1 µM
[14]
  mortality: 100%

## CN1CCN(c2c3cc(Cl)ccc3nc3[nH]c4ccccc4c23)CC1
[10]
  LC50: 0.63 µM
  LC90: 0.91 µM
Schistosoma mansoni [11]
  IC50: 6.27 µM
  IC90: 17.9 µM
Schistosoma mansoni [12]
  IC50: 5.41 µM
  IC90: 13.7 µM
Schistosoma mansoni [13]
  mortality at 5 µg/mL: 100%
[14]
  mortality: 100%

## O=C(Nc1ccc(C(F)(F)F)c(C(F)(F)F)c1)c1cc(Cl)ccc1O
Schistosoma haematobium
  Activity: 100%
Schistosoma mansoni [2]
  IC50: 0.2 µM
Schistosoma mansoni [3]
  IC50: 2.1 µM

## O=C(NO)c1cccc(C(=O)NOCCc2ccccc2)c1
[1]
  inhibition at 1 µM: < 10%

## CC1(C)CCC[C@]2(C)C(CC[C@@](C)(O)/C=C/c3cccc(Cl)c3)[C@](C)(O)CC[C@@H]12 (stereo partly drawn)
Schistosoma mansoni [5]
  IC50: < 10 µM
Schistosoma mansoni [6]
  IC50: < 10 µM

## Cn1c2nc3ccccc3c-2c(N2CCN(CCO)CC2)c2cc(Cl)ccc21
[10]
  LC50: 3.9 µM
  LC90: 4.8 µM
Schistosoma mansoni [11]
  IC50: 3.29 µM
  IC90: 5.57 µM
Schistosoma mansoni [12]
  IC50: 1.77 µM
  IC90: 4.55 µM
Schistosoma mansoni [13]
  mortality at 5 µg/mL: 100%
[14]
  mortality: 100%

## O=C(Nc1ccc(N2CCNCC2)cc1)c1ccn2ncc(-c3cccc(Cl)c3)c2n1
Schistosoma mansoni [4]
  Activity: 70.7%
Schistosoma haematobium
  Activity: 100%
Schistosoma mansoni [2]
  IC50: 0.6 µM
Schistosoma mansoni [3]
  IC50: 2 µM

## O=C(NO)c1cccc(C(=O)NOCc2ccccc2)c1
[1]
  inhibition at 1 µM: < 10%

## Cn1c2nc3ccccc3c-2c(NCCN2CCCC2)c2cc(Cl)ccc21
[10]
  LC50: 1.74 µM
  LC90: 2.64 µM
[14]
  mortality: 100%

## CC1(C)CCC[C@]2(C)C(CC[C@@](C)(O)/C=C/c3ccccc3)[C@](C)(O)CC[C@@H]12 (stereo partly drawn)
Schistosoma mansoni [5]
  IC50: < 10 µM
Schistosoma mansoni [6]
  IC50: < 10 µM

## COc1ccc(Oc2ccc([C@H](C)N(C)c3ncc4c(N)nc(N)nc4n3)cc2)cc1
Schistosoma mansoni [4]
  Activity: 32.8%
Schistosoma haematobium
  Activity: 50.9%
Schistosoma mansoni [2]
  IC50: 16.7 µM
Schistosoma mansoni [3]
  IC50: 7.9 µM

## c1ccc(Oc2ccc(-c3cncc(-c4ccc5[nH]ccc5c4)n3)cc2)cc1
Schistosoma haematobium
  Activity: 75.4%
Schistosoma mansoni [2]
  IC50: 2.2 µM
Schistosoma mansoni [3]
  IC50: 3.4 µM

## N#Cc1ccc(Nc2cc(C(F)(F)F)c(C#N)c3nc4ccccc4n23)cc1
Schistosoma mansoni [7]
  mortality at 10 µM: > 70%
Schistosoma mansoni [8]
  mortality at 10 µM: > 60%
Schistosoma mansoni [9]
  IC50: 0.2 µM

## CCN(CC)CCCC(C)Nc1c2c3ccccc3nc-2n(C)c2ccc(Cl)cc12 (stereo not drawn)
Schistosoma mansoni [11]
  IC50: 15 µM
  IC90: 21.7 µM
Schistosoma mansoni [12]
  IC50: 11.7 µM
  IC90: 16.8 µM
Schistosoma mansoni [13]
  mortality at 5 µg/mL: 100%

## Cn1c2nc3ccccc3c-2c(NCCN2CCOCC2)c2cc(Cl)ccc21
[10]
  LC50: 1.3 µM
  LC90: 2.2 µM
Schistosoma mansoni [11]
  IC50: 3.54 µM
  IC90: 6.83 µM
Schistosoma mansoni [12]
  IC50: 1.26 µM
  IC90: 4.05 µM
Schistosoma mansoni [13]
  mortality at 5 µg/mL: 100%
[14]
  mortality: 100%

## O=C(NO)c1cccc(C(=O)NOCc2ccc(F)c(F)c2)c1
[1]
  inhibition at 1 µM: < 10%

## N#Cc1c(C(F)(F)F)cc(Nc2ccccc2)n2c1nc1ccccc12
Schistosoma mansoni [7]
  mortality at 10 µM: > 70%
Schistosoma mansoni [8]
  mortality at 10 µM: > 60%
Schistosoma mansoni [9]
  IC50: 0.2 µM

## Clc1ccc2nc3[nH]c4ccccc4c3c(NCCN3CCOCC3)c2c1
Schistosoma mansoni [11]
  IC50: 7.61 µM
  IC90: 11 µM
Schistosoma mansoni [12]
  IC50: 3.41 µM
  IC90: 6.3 µM
Schistosoma mansoni [13]
  mortality at 5 µg/mL: 100%

## O=C(NO)c1cccc(C(=O)NOCCCc2ccccc2)c1
[1]
  inhibition at 1 µM: < 10%

## N#Cc1c(C(F)(F)F)cc(Nc2ccc3nc(NCCN4CCCC4)oc3c2)n2c1nc1ccccc12
Schistosoma mansoni [7]
  mortality at 10 µM: > 70%
Schistosoma mansoni [8]
  mortality at 10 µM: > 60%
Schistosoma mansoni [9]
  IC50: 0.2 µM

## Cc1csc(Nc2cc(C(F)(F)F)c(C#N)c3nc4ccccc4n23)n1
Schistosoma mansoni [7]
  mortality at 10 µM: > 70%
Schistosoma mansoni [8]
  mortality at 10 µM: > 60%
Schistosoma mansoni [9]
  IC50: 0.2 µM

## COc1cccc(-n2nnnc2S(C)(=O)=O)c1
Schistosoma haematobium
  Activity: 87.7%
Schistosoma mansoni [2]
  IC50: 0.9 µM
Schistosoma mansoni [3]
  IC50: 6.8 µM

## COc1ncnc(Nc2cc(C(F)(F)F)c(C#N)c3nc4ccccc4n23)c1OC
Schistosoma mansoni [15]
  IC50: 0.2 µM
Schistosoma mansoni [7]
  mortality at 10 µM: > 70%
Schistosoma mansoni [8]
  mortality at 10 µM: > 60%
Schistosoma mansoni [9]
  IC50: 0.2 µM

## COc1ccc(Nc2cc(C(F)(F)F)c(C#N)c3nc4ccccc4n23)cc1
Schistosoma mansoni [7]
  mortality at 10 µM: > 70%
Schistosoma mansoni [8]
  mortality at 10 µM: > 60%
Schistosoma mansoni [9]
  IC50: 0.2 µM

## CCN(CC)CCCC(C)Nc1c2c3ccccc3nc-2n(C)c2cc(Cl)ccc12 (stereo not drawn)
Schistosoma mansoni [11]
  IC50: 29.3 µM
  IC90: 32.8 µM
Schistosoma mansoni [12]
  IC50: 19.3 µM
  IC90: 24.3 µM
Schistosoma mansoni [13]
  mortality at 5 µg/mL: 100%

## N#Cc1c(C(F)(F)F)cc(Nc2cnccn2)n2c1nc1ccccc12
Schistosoma mansoni [15]
  IC50: 0.2 µM
Schistosoma mansoni [7]
  mortality at 10 µM: > 70%
Schistosoma mansoni [8]
  mortality at 10 µM: > 60%
Schistosoma mansoni [9]
  IC50: 0.2 µM

## O=C(NO)c1cccc(C(=O)NOCc2cccc(Cl)c2Cl)c1
[1]
  inhibition at 1 µM: < 10%

## CN(C)CCNc1c2c3ccccc3nc-2n(C)c2ccc(Cl)cc12
[10]
  LC50: 1.47 µM
  LC90: 2.12 µM
Schistosoma mansoni [11]
  IC50: 5.95 µM
  IC90: 13 µM
Schistosoma mansoni [12]
  IC50: 3.68 µM
  IC90: 7.65 µM
Schistosoma mansoni [13]
  mortality at 5 µg/mL: 100%
[14]
  mortality: 100%

## O=C(Nc1ccc(Cl)c(Cl)c1)Nc1ccc(Cl)c(Cl)c1
Schistosoma mansoni [16]
  Activity: 52.5%
Schistosoma mansoni [2]
  IC50: 4.7 µM

## CC(C)=CCC/C(C)=C\CNCCNC1C2CC3CC(C2)CC1C3 (stereo not drawn)
Schistosoma haematobium
  Activity: 82.5%
Schistosoma mansoni [2]
  IC50: 2.9 µM
Schistosoma mansoni [3]
  IC50: 4.9 µM

## N#Cc1c(C(F)(F)F)cc(Nc2ccnc(F)c2)n2c1nc1ccccc12
Schistosoma mansoni [7]
  mortality at 10 µM: > 70%
Schistosoma mansoni [8]
  mortality at 10 µM: > 60%
Schistosoma mansoni [9]
  IC50: 0.2 µM

## CS(=O)(=O)c1ccc(Nc2cc(C(F)(F)F)c(C#N)c3nc4ccccc4n23)cc1
Schistosoma mansoni [7]
  mortality at 10 µM: > 70%
Schistosoma mansoni [8]
  mortality at 10 µM: > 60%
Schistosoma mansoni [9]
  IC50: 0.2 µM

## N#Cc1c(C(F)(F)F)cc(NCc2ccco2)n2c1nc1cc(Cl)c(Cl)cc12
Schistosoma mansoni [15]
  IC50: 0.2 µM
